Data from BindingDB's records for doi:10.1016/j.bmcl.2009.07.064 (University of Glasgow, 2009).
pKi: −log10 of the molar value.

Tests used:
[1] = target: Transporter (Rattus norvegicus, UniProt Q63380); assay: Displacement of [3H]nisoxetine from NAT in Sprague-Dawley rat brain after 4 hrs by liquid scintillation analysis
[2] = target: Sodium-dependent serotonin transporter (Rattus norvegicus, UniProt P31652); assay: Displacement of [3H]citalopram from SERT in Sprague-Dawley rat brain after 2 hrs by liquid scintillation analysis
[3] = target: Sodium-dependent dopamine transporter (Rattus norvegicus, UniProt P23977); assay: Displacement of [3H]WIN-35428 from DAT in Sprague-Dawley rat brain after 2 hrs by liquid scintillation analysis
Sequence of Sodium-dependent dopamine transporter (P23977 whole entry): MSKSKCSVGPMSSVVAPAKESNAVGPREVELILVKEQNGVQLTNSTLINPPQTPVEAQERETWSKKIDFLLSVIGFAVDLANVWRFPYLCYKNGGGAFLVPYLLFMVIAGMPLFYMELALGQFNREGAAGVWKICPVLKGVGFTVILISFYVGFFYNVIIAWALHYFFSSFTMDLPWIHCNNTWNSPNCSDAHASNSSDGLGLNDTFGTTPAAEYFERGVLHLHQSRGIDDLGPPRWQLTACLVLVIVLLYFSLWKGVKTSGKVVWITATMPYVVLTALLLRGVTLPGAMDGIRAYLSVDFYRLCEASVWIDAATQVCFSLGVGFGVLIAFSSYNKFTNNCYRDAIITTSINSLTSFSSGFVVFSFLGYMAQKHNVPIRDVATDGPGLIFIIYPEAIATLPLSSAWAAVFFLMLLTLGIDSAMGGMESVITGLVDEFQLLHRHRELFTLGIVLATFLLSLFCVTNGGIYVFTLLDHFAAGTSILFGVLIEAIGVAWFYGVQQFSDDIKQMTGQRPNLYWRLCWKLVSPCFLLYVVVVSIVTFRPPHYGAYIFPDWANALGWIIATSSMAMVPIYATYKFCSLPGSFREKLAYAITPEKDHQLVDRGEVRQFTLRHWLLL

Sequence of Sodium-dependent serotonin transporter (P31652 whole entry): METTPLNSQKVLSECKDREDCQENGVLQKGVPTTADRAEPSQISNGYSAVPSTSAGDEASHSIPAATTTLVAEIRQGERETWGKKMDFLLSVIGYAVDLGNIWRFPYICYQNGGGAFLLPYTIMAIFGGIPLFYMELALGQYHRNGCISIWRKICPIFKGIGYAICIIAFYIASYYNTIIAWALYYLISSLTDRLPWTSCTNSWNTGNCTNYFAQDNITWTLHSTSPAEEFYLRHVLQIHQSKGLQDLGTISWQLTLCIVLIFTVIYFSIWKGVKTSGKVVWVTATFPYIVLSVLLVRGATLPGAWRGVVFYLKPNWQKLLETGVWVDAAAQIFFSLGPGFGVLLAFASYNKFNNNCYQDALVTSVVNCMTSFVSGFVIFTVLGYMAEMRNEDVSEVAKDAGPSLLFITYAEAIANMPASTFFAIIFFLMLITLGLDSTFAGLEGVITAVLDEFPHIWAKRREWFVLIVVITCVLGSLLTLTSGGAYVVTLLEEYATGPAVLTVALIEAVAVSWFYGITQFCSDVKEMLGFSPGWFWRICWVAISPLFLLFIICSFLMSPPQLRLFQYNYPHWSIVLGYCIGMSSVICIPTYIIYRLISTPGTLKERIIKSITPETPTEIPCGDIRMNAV
Sequence of Transporter (Q63380 whole entry): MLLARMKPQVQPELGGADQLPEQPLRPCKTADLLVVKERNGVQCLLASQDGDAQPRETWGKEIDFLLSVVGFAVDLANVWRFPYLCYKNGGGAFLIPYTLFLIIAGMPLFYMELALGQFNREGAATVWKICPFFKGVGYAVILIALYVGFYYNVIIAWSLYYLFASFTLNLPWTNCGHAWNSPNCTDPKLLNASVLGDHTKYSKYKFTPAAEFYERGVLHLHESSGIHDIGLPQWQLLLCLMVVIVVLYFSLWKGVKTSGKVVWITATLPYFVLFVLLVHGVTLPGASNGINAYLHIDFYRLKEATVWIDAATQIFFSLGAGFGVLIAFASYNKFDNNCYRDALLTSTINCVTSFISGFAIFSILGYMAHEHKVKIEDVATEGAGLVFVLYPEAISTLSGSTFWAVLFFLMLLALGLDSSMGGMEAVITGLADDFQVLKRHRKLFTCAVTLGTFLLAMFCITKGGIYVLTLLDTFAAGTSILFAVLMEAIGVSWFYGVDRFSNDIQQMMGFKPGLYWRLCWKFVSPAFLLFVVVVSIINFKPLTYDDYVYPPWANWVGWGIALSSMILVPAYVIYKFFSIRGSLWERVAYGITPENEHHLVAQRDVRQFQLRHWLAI

Row | pKi [1] | pKi [2] | pKi [3] | Compound
1 | 5.77 | 6.81 | 5.72 | Ic1cccc(O[C@@H](c2ccccc2)[C@H]2CNCCO2)c1 [(2R,3S)-2-[(3-Iodophenoxy)phenylmethyl]morpholine]
2 | 5.96 | 7.46 | 5.68 | Ic1ccc(O[C@@H](c2ccccc2)[C@H]2CNCCO2)cc1 [(2R,3S)-2-[(4-Iodophenoxy)phenylmethyl]morpholine]
3 | 8.08 | 7.29 | 6.28 | Ic1ccccc1O[C@@H](c1ccccc1)[C@H]1CNCCO1 [(2R,3S)-2-[(2-Iodophenoxy)phenylmethyl]morpholine]
